Like-named read-outs stand apart in the source and are kept apart here.
What was measured:
[1] = tested on: ddY mice; assay: Tail suspension test; assay type: in vivo, mouse; settings: 30 min before 6-min suspension
Description: Antidepressant-like effect can be evaluated by a tail suspension test. The tail suspension test is an experimental method used to screen potential antidepressant drugs (Can et al., 2012, J Vis Exp., 59:e3769). The amount of time that a mouse is immobile (i.e. is not displaying escape behavior) during the six minutes is measured to provide an immobility time. […] Therefore, if a reduction of immobility time is observed when testing a test substance, it can be concluded that the test substance has anti-depressant properties. Immobility is considered a despair state, and, therefore, a reduction of immobility time also indicates an increase in motivation (i.e., that the test substance has motivation-increasing properties).
The peptide SYLPPLT (SEQ ID NO: 4) was administered orally to mice (ddY mice, males, 24˜30 g) at 0.03 mg/kg, 0.1 mg/kg or 0.3 mg/kg and 30 minutes later the mice were suspended by their tails for six minutes.(n=11 to 14)

[2] = biological target: T1, serotonin 5-HT1A receptor (Mus musculus, UniProt Q64264); assay: Elevated plus-maze test with 5-HT1A receptor antagonist WAY100135; assay type: in vivo; settings: elevated plus-maze with or without WAY100135
T1 construct: from tissue; host or cells: whole living animal (ddY mouse, male)
T1 sequence (Q64264 1-421): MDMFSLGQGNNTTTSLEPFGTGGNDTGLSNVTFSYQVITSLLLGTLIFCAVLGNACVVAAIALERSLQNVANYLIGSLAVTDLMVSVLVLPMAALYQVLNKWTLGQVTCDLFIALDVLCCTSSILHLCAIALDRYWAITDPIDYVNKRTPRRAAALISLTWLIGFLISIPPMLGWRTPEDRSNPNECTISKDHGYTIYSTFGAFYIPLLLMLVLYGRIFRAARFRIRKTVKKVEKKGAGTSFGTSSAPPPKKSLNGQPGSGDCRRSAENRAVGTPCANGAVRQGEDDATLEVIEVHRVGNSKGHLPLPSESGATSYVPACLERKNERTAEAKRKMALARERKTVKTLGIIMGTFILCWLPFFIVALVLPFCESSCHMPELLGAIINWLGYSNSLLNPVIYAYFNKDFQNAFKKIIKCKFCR
Text: (§1) The elevated plus-maze consists of two open arms (25 cm×5 cm) and two closed arms (25 cm×5 cm×15 cm), and these arms are connected to a central platform elevated by 50 cm from the floor (see FIG. 1). In spite of such an elevated position, mice can walk safely in the closed arms because the closed arms are fenced. On the other hand, mice waking in the open arms feel anxious about falling from the elevated position because the open arms are open without being fenced. Therefore, a longer time when a mouse stays in the open arms means that mouse's feeling of anxiety is more alleviated, and serves as an index for an anxiolytic-like effect.
(§2) As shown in the right diagram of FIG. 1, a sample was administered to each mouse (ddY mouse, male, 23 to 27 g) 30 minutes before the test. 30 minutes later, the mouse was placed on the central platform facing one of the open arms to start the test. Cumulative time in the open arms was recorded during the 5-minute test time. The percentage of the time in the open arms was calculated as an index for an anxiolytic-like effect.
The peptide SYLPPLTT (SEQ ID NO: 1) or the peptide SYLPPLT (SEQ ID NO: 4) (dose: 1.0 mg/kg) was used in combination with a serotonin 5-HT1A receptor antagonist WAY100135 (dose: 10 mg/kg) and orally administered (p.o.) to each mouse, which was then used in the elevated plus-maze test (n=4 to 6).
The peptide YHIEPV (SEQ ID NO:2) was orally administered as a sample to mice 30 minutes before an elevated plus-maze test, with or without WAY100135, an antagonist selective for 5-HT1A receptor (n=13-15). WAY100135 was administered 50 minutes before the elevated plus-maze test. Separately, the peptide YHIEPV (SEQ ID NO:2) was orally administered as a sample to mice 30 minutes before an elevated plus-maze test, with or without naltrindole, an […] receptor antagonist, which was administered 50 minutes before the elevated plus-maze test (n=11-15).

[3] = tested on: ddY mouse; assay: Elevated plus-maze (EPM) test; assay type: in vivo
Description: The test was conducted 30 minutes after oral administration of a sample, and the evaluation was conducted based on the 5-minute test time. 23 to 27 g male ddY mice were used as animals to be studied. Cumulative time in open arms was recorded, and the percentage (%) of the time in open arms was used as an index for an anxiolytic-like effect.
The anxiolytic-like effect of a peptide or peptide conjugate can be evaluated by an elevated plus-maze test which has been developed as an anxiety-related behavior evaluation method for screening for anti-anxiety agents and is widely used (FIG. 1). Specifically, a candidate substance is orally or intraperitoneally administered to each mouse. 30 minutes later, the mouse is placed in an elevated plus-maze. The strength of the anxiolytic-like effect can be evaluated by using the number of entries into open arms and change in residence time in the open arms as indexes.
as §1, §2
The data obtained by the test was indicated by the sum of a mean and a standard error of the mean (SEM). The data shown in FIGS. 1 to 9, 17, 18, 20, and 21 was analyzed by one-way or two-way ANOVA. Subsequently, study was conducted for multiple comparison by the Tukey Kramer method. P-value of <0.05 is denoted in the drawings as “*”; p-value of <0.01 is denoted in the drawings as “**”.

[4] = stated in Non Patent Literature 1; cited from earlier work
[5] = tested on: ddY mice; settings: general statement on anti-depressant drugs; cited from earlier work
[6] = biological target: T2, δ opioid receptor (Mus musculus, UniProt P32300); assay: Elevated plus-maze test with opioid receptor antagonist naltrindole; assay type: in vivo; settings: elevated plus-maze with or without naltrindole given 50 min before test; peptide oral 30 min before
T2 construct: orally administered as a sample to mice 30 minutes before an elevated plus-maze test, with or without naltrindole; from tissue; host or cells: whole living animal (ddY mouse, male)
Text: as §1, §2
The peptide YHIEPV (SEQ ID NO:2) was orally administered as a sample to mice 30 minutes before an elevated plus-maze test, with or without WAY100135, an antagonist selective for 5-HT1A receptor (n=13-15). WAY100135 was administered 50 minutes before the elevated plus-maze test. […]

[7] = Example 16, oral, SYLPPLTT 0.3, 1, SYLPPLT 0.1, 0.3, 1, YHIEPV 1, 3, 10, diazepam 1, 3, 10 mg/kg, result not split by dose
[8] = oral 0.1 mg/kg, 30 min before 5-min test, vs vehicle saline
[9] = oral 0.3 mg/kg, 30 min before 5-min test, vs vehicle saline
[10] = oral 1 mg/kg, 30 min before 5-min test, vs vehicle saline
[11] = oral 10 mg/kg, 30 min before 5-min test, vs vehicle saline

T2 sequence (P32300 whole entry): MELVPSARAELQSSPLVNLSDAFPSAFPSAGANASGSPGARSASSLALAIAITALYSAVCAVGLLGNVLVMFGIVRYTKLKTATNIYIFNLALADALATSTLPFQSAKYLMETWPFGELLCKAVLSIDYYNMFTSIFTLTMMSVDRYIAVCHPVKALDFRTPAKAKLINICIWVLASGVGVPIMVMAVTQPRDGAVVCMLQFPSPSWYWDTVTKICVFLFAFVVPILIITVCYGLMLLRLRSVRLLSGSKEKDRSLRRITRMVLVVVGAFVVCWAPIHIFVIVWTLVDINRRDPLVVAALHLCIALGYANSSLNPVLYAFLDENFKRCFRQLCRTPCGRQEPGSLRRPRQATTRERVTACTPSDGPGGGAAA

## SYLPPLT
[1]; oral 0.03 mg/kg
  immobility time: decrease
[1]; oral 0.1 mg/kg
  immobility time: decrease
[1]; oral 0.3 mg/kg
  immobility time: decrease
[2]
  anxiolytic-like effect mediated by serotonin 5-HT1A receptor: mediated by activation of serotonin 5-HT1A receptor
[3]; [7]
  ratio of an open arm residence time: increased
[3]; [8]
  ratio of an open arm residence time: increased
[3]; [9]
  ratio of an open arm residence time: increased
[3]; [10]
  ratio of an open arm residence time: statistically significant

## Rubiscolin-6
[4]
  anxiolytic effect: has an anxiolytic effect

## NYLLVKG
[3]; [8]
  ratio of an open arm residence time: increased

## CN(C)CCCN1c2ccccc2CCc2ccccc21 [imipramine]
[5]
  immobility time: reduces immobility time

## YHIEPV
[6]
  anxiolytic-like effect mediated by opioid receptor: mediated by activation 8-opioid receptor
[2]
  anxiolytic-like effect mediated by serotonin 5-HT1A receptor: not mediated by activation of serotonin 5-HTopio1A receptor
[3]; [7]
  ratio of an open arm residence time: increased
[3]; [10]
  ratio of an open arm residence time: increased
[3]; oral 3 mg/kg, 30 min before 5-min test, vs vehicle saline
  ratio of an open arm residence time: statistically significant
[3]; [11]
  ratio of an open arm residence time: statistically significant

## YLLAVK
[3]; [7]
  ratio of an open arm residence time: increased
[3]; [8]
  ratio of an open arm residence time: increased

## YLLVK
[3]; oral 0.03 mg/kg, 30 min before 5-min test, vs vehicle saline
  ratio of an open arm residence time: significantly increased
[3]; oral 0.1 mg/kg, 30 min before 5-min test, vs vehicle saline, 0.1 mg/kg
  ratio of an open arm residence time: significantly increased

## SYLPPL
[3]; [9]
  ratio of an open arm residence time: increased
[3]; [10]
  ratio of an open arm residence time: increased
[3]; [11]
  ratio of an open arm residence time: increased

## YLLVR
[3]; [8]
  ratio of an open arm residence time: increased

## YLVK
[3]; [8]
  ratio of an open arm residence time: increased

## FLLVK
[3]; [8]
  ratio of an open arm residence time: increased

## WLLVK
[3]; [8]
  ratio of an open arm residence time: increased

## LLVK
[3]; [8]
  ratio of an open arm residence time: increased

## YLL (NYLLVKG)
[3]; [8]
  ratio of an open arm residence time: increased

## SYLPPLTT
[2]
  anxiolytic-like effect mediated by serotonin 5-HT1A receptor: mediated by activation of serotonin 5-HT1A receptor
[3]; [7]
  ratio of an open arm residence time: increased
[3]; [9]
  ratio of an open arm residence time: increased
[3]; [10]
  ratio of an open arm residence time: statistically significant

## LVK
[3]; [8]
  ratio of an open arm residence time: increased

## YLLNNK
[3]; [8]
  ratio of an open arm residence time: increased

## CN1C(=O)CN=C(c2ccccc2)c2cc(Cl)ccc21 [diazepam, Diazepam, reference compound]
[3]; [7]
  ratio of an open arm residence time: increase observed

## YLLV
[3]; [8]
  ratio of an open arm residence time: increased

Source: patent publication US20240166686A1, “THERAPEUTIC PEPTIDES” (Kyoto University, priority 2017, published 2024)
